The values below come from ChEMBL document CHEMBL1122133, “(+/-)-cis-2-acetoxycyclobutyltrimethylammonium iodide: a semirigid analogue of acetylcholine” (1982).

Structures are written as SMILES.

The test is filed under the species Cavia porcellus. Briefly: Evaluated for muscarinic activity using guinea pig ilea. It is filed as functional.

`CC(=O)O[C@H]1CC[C@H]1[N+](C)(C)C.[I-]`: the ID50 is 83 nM.

The compound `CC(=O)O[C@@H]1CC[C@H]1[N+](C)(C)C.[I-]` had an ID50 of 68 nM.
